According to patent US20240041042A1, “1-(PYRIDYL)-5-AZINYLPYRAZOLE DERIVATIVES, AND THEIR USE FOR CONTROL OF UNDESIRED PLANT GROWTH” (Bayer Aktiengesellschaft, priority 2020, published 2024):
Where two headings read alike, the source gives them in different places.

How the values were obtained:
Type in all cases: in vivo
[1] = system: Alopecurus myosuroides (ALOMY); experiment: Pre-emergence herbicidal action against ALOMY; conditions: scored visually after about 3 weeks, 100% = plants have died
Outline: (§1)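 Greenhouse pot trial: seeds sown, soil-covered, sprayed before emergence with compound in water (0.5% additive; 600 l/ha; ≤320 g/ha). Scoring visual, ~3 weeks, 0–100% scale vs untreated.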

[2] = system: Amaranthus retroflexus (AMARE); experiment: Pre-emergence herbicidal action against AMARE; conditions: visual scoring after about 3 weeks vs untreated controls
Outline: as §1

[3] = system: Avena fatua (AVEFA); experiment: Pre-emergence herbicidal action against AVEFA; conditions: 320 g/ha, visual scoring after about 3 weeks vs untreated controls
Outline: as §1

[4] = system: Digitaria sanguinalis (DIGSA); experiment: Pre-emergence herbicidal action against DIGSA
Description: Seeds of monocotyledonous and dicotyledonous weed plants and crop plants are placed in plastic or organic planting pots and covered with soil. The compounds of the invention, formulated in the form of wettable powders (WP) or as emulsion concentrates (EC), are then applied to the surface of the covering soil as aqueous suspension or emulsion with addition of 0.5% additive at a water application rate equivalent to 600 l/ha. After the treatment, the pots are placed in a greenhouse and kept under good growth conditions for the trial plants. After about 3 weeks, the effect of the preparations is scored visually in comparison with untreated controls as percentages. For example, 100% activity=the plants have died, 0% activity=like control plants.
Tables A1 to A13 below show the effects of selected compounds of the general formula (I) on various harmful plants and at an application rate corresponding to 320 g/ha or lower, which were obtained by the experimental procedure mentioned above. The appendices “a”, “b” and “c” give differentiation by dosage used with otherwise the same harmful plants tested.

[5] = system: Echinochloa crus-galli (ECHCG); experiment: Pre-emergence herbicidal action against ECHCG
Outline: as §1

[6] = system: Lolium rigidum (LOLRI); experiment: Pre-emergence herbicidal action against LOLRI
Outline: as §1

[7] = system: Matricaria inodora (MATIN); experiment: Pre-emergence herbicidal action against MATIN
Outline: as §1

[8] = system: Pharbitis purpurea (PHBPU); experiment: Pre-emergence herbicidal action against PHBPU
Outline: as §1

[9] = system: Polygonum convolvulus (POLCO); experiment: Pre-emergence herbicidal action against POLCO
Outline: as §1

[10] = system: Setaria viridis (SETVI); experiment: Pre-emergence herbicidal action against SETVI
Outline: as §1

[11] = system: Verconica persica (VERPE); experiment: Pre-emergence herbicidal action against VERPE
Outline: as §1

[12] = system: Viola tricolor (VIOTR); experiment: Pre-emergence herbicidal action against VIOTR
Outline: as §1

[13] = system: Abutilon theophrasti (ABUTH); experiment: Post-emergence herbicidal action against ABUTH; conditions: 80 g/ha, visual rating about 3 weeks after treatment vs untreated controls (100% = plants have died, 0% = like control plants)
Outline: (§2)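 Rates were 320 g/ha or below, applied as aqueous WP/EC spray with 0.5% additive (600 l/ha) onto one-leaf-stage plants. About 3 weeks later in the greenhouse, damage was scored visually against untreated plants on a 0–100% scale, where 100% means plants died.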

[14] = system: Alopecurus myosuroides (ALOMY); experiment: Post-emergence herbicidal action against ALOMY; conditions: visual rating about 3 weeks after treatment vs untreated controls (100% = plants have died, 0% = like control plants)
Outline: as §2

[15] = system: Digitaria sanguinalis (DIGSA); experiment: Post-emergence herbicidal action against DIGSA; conditions: visual rating about 3 weeks after treatment
Outline: as §2

[16] = system: Echinochloa crus-galli (ECHCG); experiment: Post-emergence herbicidal action against ECHCG
Outline: as §2

[17] = system: Pharbitis purpurea (PHBPU); experiment: Post-emergence herbicidal action against PHBPU
Outline: as §2

[18] = system: Polygonum convolvulus (POLCO); experiment: Post-emergence herbicidal action against POLCO
Outline: as §2

[19] = system: Setaria viridis (SETVI); experiment: Post-emergence herbicidal action against SETVI
Outline: as §2

[20] = system: Verconica persica (VERPE); experiment: Post-emergence herbicidal action against VERPE
Outline: as §2

[21] = system: Viola tricolor (VIOTR); experiment: Post-emergence herbicidal action against VIOTR
Outline: as §2

[22] = system: Lolium rigidum (LOLRI); experiment: Post-emergence herbicidal action against LOLRI
Outline: as §2

[23] = system: Amaranthus retroflexus (AMARE); experiment: Post-emergence herbicidal action against AMARE
Outline: as §2

[24] = system: Avena fatua (AVEFA); experiment: Post-emergence herbicidal action against AVEFA; conditions: visual rating about 3 weeks after treatment
Outline: as §2

[25] = system: Oryza sativa (ORYSA); conditions: crop plant compatibility
Outline: (§3)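 Visual rating (% effect vs. untreated plants; 100% = plant death) made about 3 weeks after treatment. Plants had been sprayed at one-leaf stage, 2–3 weeks post-sowing, with aqueous WP/EC preparations containing 0.5% additive, 600 l/ha water volume; a, b, c mark dose levels.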

[26] = system: Zea mays (ZEAMX)
Outline: as §3

[27] = 80 g/ha, visual scoring after about 3 weeks vs untreated controls
[28] = 80 g/ha, visual rating about 3 weeks after treatment vs untreated controls (100% = plants have died, 0% = like control plants)

Row | SMILES | Pre-emergence action against ALOMY ([1]; 80 g/ha) | Pre-emergence action against ALOMY ([1]; 320 g/ha) | Pre-emergence action against AMARE in % ([2]; 320 g/ha) | Pre-emergence action against AVEFA in % [3] | Pre-emergence action against DIGSA in % [4, 27] | Pre-emergence action against DIGSA in % ([4]; dosage 320 g/ha) | Pre-emergence action against ECHCG in % ([5]; dosage 320 g/ha) | Pre-emergence action against LOLRI in % ([6]; dosage 320 g/ha) | Pre-emergence action against MATIN in % ([7]; dosage 320 g/ha) | Pre-emergence action against PHBPU in % ([8]; dosage 320 g/ha) | Pre-emergence action against POLCO in % ([9]; dosage 80 g/ha) | Pre-emergence action against POLCO in % ([9]; dosage 320 g/ha) | Pre-emergence action against SETVI in % ([10]; dosage 80 g/ha) | Pre-emergence action against SETVI in % ([10]; dosage 320 g/ha) | Pre-emergence action against VERPE in % ([11]; dosage 320 g/ha) | Pre-emergence action against VIOTR in % ([12]; 320 g/ha, Viola tricolor) | Pre-emergence action against VIOTR in % ([12]; dosage 80 g/ha) | Post-emergence action against DIGSA in % ([15]; 80 g/ha) | Post-emergence action against PHBPU in % ([17]; dosage 80 g/ha) | Post-emergence action against SETVI in % ([19]; dosage 80 g/ha) | also measured
1 | CCOC(=O)COc1nn(-c2ncccc2F)c(-c2ccc(F)nc2)c1Cl [Example I-38] | 100% | 100% | 100% | 100% | 100% | 100% | 100% | 100% | 100% | 90% | 90% | 100% | 100% | 100% | 100% | 100% | 100% | 90% | 90% | 80% | Pre-emergence action against AMARE in % ([2]; 80 g/ha): 100%; Pre-emergence action against MATIN in % ([7]; dosage 80 g/ha): 100%; Post-emergence action against ABUTH in % [13]: 80%; Post-emergence action against ALOMY in % ([14]; 80 g/ha): 100%; Post-emergence action against ECHCG in % ([16]; dosage 80 g/ha): 90%; Post-emergence action against POLCO in % ([18]; dosage 80 g/ha): 80%; Post-emergence action against VERPE in % ([20]; dosage 80 g/ha): 80%; Post-emergence action against VIOTR in % ([21]; 80 g/ha): 80%
2 | CCOC(=O)COc1nn(-c2nc(F)ccc2F)c(-c2cncc(F)c2)c1Cl [Example I-163] | – | 90% | 90% | – | 90% | 100% | 90% | 90% | 90% | 90% | 80% | 80% | 80% | 100% | 80% | 100% | 90% | – | 80% | 80% | Pre-emergence action against ECHCG in % ([5]; dosage 80 g/ha): 80%; Pre-emergence action against MATIN in % ([7]; dosage 80 g/ha): 90%; Pre-emergence action against PHBPU in % ([8]; dosage 80 g/ha): 90%; Post-emergence action against ALOMY in % ([14]; 320 g/ha): 80%; Post-emergence action against DIGSA in % ([15]; 320 g/ha): 80%; Post-emergence action against ECHCG in % ([16]; dosage 80 g/ha): 80%; Post-emergence action against ECHCG in % ([16]; dosage 320 g/ha): 80%; Post-emergence action against LOLRI in % ([22]; dosage 320 g/ha): 80%; Post-emergence action against PHBPU in % ([17]; dosage 320 g/ha): 90%; Post-emergence action against SETVI in % ([19]; dosage 320 g/ha): 90%; Post-emergence action against VIOTR in % ([21]; 320 g/ha): 80%
3 | COCCOCCOC(=O)COc1nn(-c2ncccc2F)c(-c2ccc(F)nc2)c1Br [Example I-37] | 100% | 100% | 100% | 90% | 100% | 100% | 100% | 100% | 100% | 90% | 80% | 90% | 100% | 100% | 100% | 100% | 100% | 90% | 80% | 80% | Pre-emergence action against AMARE in % ([2]; 80 g/ha): 100%; Pre-emergence action against LOLRI in % ([6]; dosage 80 g/ha): 80%; Pre-emergence action against VERPE in % ([11]; dosage 80 g/ha): 80%; Post-emergence action against ABUTH in % [13]: 80%; Post-emergence action against ALOMY in % ([14]; 80 g/ha): 90%; Post-emergence action against AMARE in % [23, 28]: 90%; Post-emergence action against ECHCG in % ([16]; dosage 80 g/ha): 80%; Post-emergence action against POLCO in % ([18]; dosage 80 g/ha): 80%; Post-emergence action against VERPE in % ([20]; dosage 80 g/ha): 80%
4 | O=C(COc1nn(-c2ncccc2F)c(-c2ccc(F)nc2)c1Br)OCc1ccccn1 [Example I-46] | 90% | 100% | 100% | 90% | 100% | 100% | 90% | 100% | 90% | – | – | 80% | 90% | 100% | 100% | 100% | 90% | 90% | 80% | – | Pre-emergence action against AMARE in % ([2]; 80 g/ha): 100%; Pre-emergence action against LOLRI in % ([6]; dosage 80 g/ha): 90%; Pre-emergence action against MATIN in % ([7]; dosage 80 g/ha): 90%; Post-emergence action against ALOMY in % ([14]; 80 g/ha): 90%; Post-emergence action against AMARE in % [23, 28]: 90%; Post-emergence action against AVEFA in % ([24]; 80 g/ha): 80%; Post-emergence action against VERPE in % ([20]; dosage 80 g/ha): 80%; Post-emergence action against ORYSA in % ([25]; 20 g/ha, effect vs untreated controls): 10%; Post-emergence action against ZEAMX in % (crop plant compatibility) ([26]; 20 g/ha, ZEAMX, effect in comparison to untreated controls): 0%; Post-emergence action against ZEAMX in % ([26]; crop plant compatibility, 80 g/ha, effect vs untreated controls): 10%
5 | C=C(COC(=O)[C@@H](C)Oc1nn(-c2ccccn2)c(-c2ccc(F)nc2)c1Cl)C(=O)OC [Example I-322] | 80% | 100% | 100% | 90% | 100% | 100% | 100% | 100% | 80% | 90% | 80% | 90% | 90% | 100% | – | 100% | 80% | 80% | 80% | 80% | Pre-emergence action against ECHCG in % ([5]; dosage 80 g/ha): 80%; Pre-emergence action against LOLRI in % ([6]; dosage 80 g/ha): 90%; Post-emergence action against ALOMY in % ([14]; 320 g/ha): 80%; Post-emergence action against AMARE in % [23, 28]: 80%; Post-emergence action against AMARE in % ([23]; 320 g/ha, visual rating about 3 weeks after treatment): 80%; Post-emergence action against AVEFA in % ([24]; 80 g/ha): 80%; Post-emergence action against AVEFA in % ([24]; 320 g/ha): 80%; Post-emergence action against DIGSA in % ([15]; 320 g/ha): 80%; Post-emergence action against ECHCG in % ([16]; dosage 320 g/ha): 80%; Post-emergence action against LOLRI in % ([22]; dosage 80 g/ha): 80%; Post-emergence action against LOLRI in % ([22]; dosage 320 g/ha): 80%; Post-emergence action against PHBPU in % ([17]; dosage 320 g/ha): 80%; Post-emergence action against POLCO in % ([18]; dosage 80 g/ha): 80%; Post-emergence action against POLCO in % ([18]; dosage 320 g/ha): 80%; Post-emergence action against SETVI in % ([19]; dosage 320 g/ha): 80%; Post-emergence action against VERPE in % ([20]; 320 g/ha, VERPE): 80%; Post-emergence action against VERPE in % ([20]; dosage 80 g/ha): 80%; Post-emergence action against VIOTR in % ([21]; 80 g/ha): 80%; Post-emergence action against VIOTR in % ([21]; 320 g/ha): 80%; Post-emergence action against ORYSA in % ([25]; 80 g/ha, effect in comparison to untreated controls): 10%
